Tests used:
[1] = test system: pentosidine formation; test: AGEs (pentosidine) formation inhibiting effect in plasma from dialysis patients; assay type: biochemical, human
Method: Before dialysis, blood samples were obtained from non-diabetic volunteer dialysis patients with renal failure, and fresh heparinized plasma samples were prepared therefrom Pooled plasma obtained from several patients (n=3˜5) was served to the test. 4-(5-phenyltetrazol-1-ylmethyl)-morpholine (Compound 1), 5-methyl-1-(5-phenyltetrazol-1-ylmethyl)-3a,6a-dihydro-1H-pyrrolo[3,4-d][1,2,3]triazole-4,6-dione (Compound 2) or (5-phenyltetrazol-1-yl)methanol (Compound 3) adjusted to a designed concentration ([…]), in DMSO solution (100 μl), was added to the pooled plasma (900 μl) and incubated at 37° C. for 7 days in the presence of air. Then, the amount of pentosidine was measured to estimate the suppressive effect on the glycation of protein.
Measurement of the amount of pentosidine was made as follows: to each incubated sample (50 μL) was added an equal volume of 10% trichloroacetic acid, followed by centrifugation at 5000 g for 5 minutes; after removal of the supernatant, the pellet was washed by 5% trichloroacetic acid (300 μL); the pellet was dried under reduced pressure and then subjected to hydrolysis in 6N HCI solution (100 μL) at 110° C. under nitrogen atmosphere for 16 hours; to the hydrolysate, 5N NaOH (100 μL) and 0.5 M phosphate buffer (pH 7.4) (200 μL) were added, followed by filtration through a porefilter with a pore size of 0.5 μm and dilution with PBS. The concentration of free pentosidine was determined by reversed-phase HPLC using a fluorescence detector (RF-10A, Shimazu Seisakusho) (Miyata, T. et al.: Proc. Natl. Acad. Sci. USA, 93, 2353-2358, 1996). The effluent was monitored at 335/385 nm of excitation/emission wavelength. Synthetic pentosidine was used as the standard. The detection limit of pentosidine was 0.1 pmol/mg protein.
The inhibiting effect was estimated by comparing with positive control (aminoguanidine and pyridoxamine (Sigma)) reacted in the same manner as 4-(5-phenyltetrazol-1-yl-methyl)-morpholine (Compound 1), 5-methyl-1-(5-phenyltetrazol-1-ylmethyl)-3a,6a-dihydro-1H-pyrrolo[3,4-d][1,2,3]triazole-4,6-dione (Compound 2) and (5-phenyltetrazol-1-yl)methanol (Compound 3).

[2] = Suppressive effect on the hydroxylation of phenylalanine with hydroxy radical; assay type: biochemical; conditions: in comparison with pyridoxamine as positive control; 0.1, 0.5, 2.5 mM
Method: Phenylalanine (final concentration: 1 mM), test compound (final concentration: 0.1, 0.5, 2.5 mM), hydrogen peroxide (final concentration: 5 mM) and cupric sulfate (final concentration: 0.1 mM) were dissolved in 200 mM of phosphate buffer (pH7.4) (total volume 500 μL), followed by incubation at 37° C. for 4 hours. Then, DTPA (final concent-ration: 1 mM) and 260 unit of catalase were added thereto to interrupt the reaction. The amounts of o-tyrosine and m-tyrosine formed were determined by HPLC in the following manner: after a designed period of time, the reaction mixture was diluted to 100 folds; 20 μL of the dilution was injected onto HPLC, separation was made with C18 column (4.6×250 mm, 5 μm; Nomura Kagaku) and detection was effected using a fluorescence detector (RF-10A: Shimazu Seisakusho) under the condition of an excitation wavelength of 275 nm and a fluorescence wavelength of 305 nm. In the mobile phase, the flow rate was 0.6mL/min and the concentration of buffer B was varied from 6.5% to 10% in 25 minutes (buffer A: 0.10% trifluoroacetic acid; buffer B: 80% acetonitrile containing 0.08% trifluoroacetic acid).

[3] = test system: middle cerebral artery ischemia-reperfusion model; test: Cerebroprotective action in middle cerebral artery ischemia-reperfusion model; assay type: in vivo, rat; conditions: for cerebral infarction nest: dosed 5 minutes and 5 hours after occlusion
Method: CD(SD)IGS male rats (Japan Charles River Kabushiki […], Hino farm, room No. 22, specific product) (8 rats per one group) having body weight 270 to 350 g were anesthetized by 2% isoflurane (mixed bas comprising of 70% N2O (laughter gas) and 30% O2) to immobilize, and then the rats were put on warming plate to keep the rectal and brain temperature 37 to 38° C. After that, to observe the stability in the examination, canula which was made by polyethylene (PE-50, Becton Dickinson) was inserted and left in caudal artery of said animal, and this made blood drawing and blood pressure determining to monitor the biochemical parameter such as blood sugar level, hematocrit, CO2 concentration, oxygen partial pressure, pH, blood pressure and etc. In addition, cerebral blood flow in cortex was determined by laser doppler […] (Neuroscience.inc: OMEGA FLOW (FLO-C1)), putting the detection site directly on cranium on the point left 4 mm from bregma. Left neck of such animal was incised, and from internal and external carotid fork of common carotid artery to upstream of internal carotid, nylon surgical thread (length 16 mm, diameter 0.2 to 0.3 mm, with silicon coating on its tip 3 mm) was passed and left, middle cerebral artery was obstructed for 2 hours. After that, the thread was removed to release the middle cerebral artery, and blood was reperfused for 21 hours. To each animals, 3.0 mg/kg of 3-methyl-1-phenyl 2-pyrazolin-5-one (control, hereinafter referring to edaravone) and 4.23 mg/kg of 4-(5-phenyltetrazol-1-ylmethyl)-morpholine (compound 1) (test compound, hereinafter referring to TM-3001) were respectively administered twice by cannula which is left in caudal artery 5 minutes and 5 hours after middle cerebral artery occlusion. After said operation, the brain was removed from said animal, and after preparing 7 brain slices with 2 mm thickness, to TTC stain (0.8 g of 2,3,5-triphenyltetrazolium chloride (Sigma) dissolved in 40 ml of saline) were soaked at 37° C. for 15 minutes to stain, and fixed by 10% neutral formalin liquid to prepare specimen. Such specimens were created the image by CCD camera respectively, and analysed according to method of Swanson et al. (J Cereb Blood Flow Metab 10:290-293; […]). […] Furthermore, function recovering was estimated before and after the operation by rotor rod test that estimates how much they can walk on rotating rotor.

[4] = comparing to diluent single administration

c1ccc(-c2nnnn2CN2CCOCC2)cc1 [Compound 1, 4-(5-phenyltetrazol-1-ylmethyl)-morpholine]
Pentosidine formation ([1]; 5 mM, plasma from dialysis patients, 37° C., 7 days, DMSO negative control 2.960): 0.367 nmol/mL | pentosidine formation suppression ([1]; plasma from the patients with dialysis): suppressed remarkably | hydroxylation of phenylalanine with hydroxy radical, suppression [2]: suppressed remarkably | Nervous condition estimation test, Ave (Bederson grade) ([3]; after occlusion 10 min): 2.4 | Nervous condition estimation test, Ave (Bederson grade) ([3]; after occlusion 2 hrs): 2.9 | Nervous condition estimation test, Ave (Bederson grade) ([3]; after reperfusion 10 min): 2.6 | Nervous condition estimation test, Ave (Bederson grade) ([3]; after reperfusion 3 hrs): 2.4 | Nervous condition estimation test, Ave (Bederson grade) ([3]; after reperfusion 4 hrs): 2.5 | rotor rod test, Ave (count from rotor rod machine) ([3]; before occlusion): 300.0 | improvement for nervous condition [3, 4]: remarkably shown | recovering the function, rotor rod test [3, 4]: remarkably shown | cerebral infarction nest [3, 4]: reduction of the cerebral infarction nest | cerebral infarction nest ([3]; comparing to diluent single administration, listed as TM-3001): significantly reduced | rotor rod test, Ave (count from rotor rod machine) ([3]; reperfusion): 64.8 | rotor rod test, ratio to before occlusion (%), Ave ([3]; reperfusion vs before occlusion): 21.6%
